Laboratory results published in US8912186B2, “Allosteric protein kinase modulators” (Universitaet des Saarlandes, priority 2008, dated 2014).

Columns and labels:
Assay type in all cases: biochemical
PRK2 = PRK2 (Homo sapiens, UniProt Q16513); assay: cell-free kinase activity assay; conditions: DMSO control set 100%
SGK = target: T1, SGK (Homo sapiens, UniProt O00141); assay: cell-free kinase activity assay; conditions: DMSO control set 100%; for remaining activity at 200 µM / remaining activity at 50 µM: read-out: percent of catalytic activity of the Kinase in the presence of compound as compared to the solvent control (DMSO): SGK
T1 sequence (O00141 1-431): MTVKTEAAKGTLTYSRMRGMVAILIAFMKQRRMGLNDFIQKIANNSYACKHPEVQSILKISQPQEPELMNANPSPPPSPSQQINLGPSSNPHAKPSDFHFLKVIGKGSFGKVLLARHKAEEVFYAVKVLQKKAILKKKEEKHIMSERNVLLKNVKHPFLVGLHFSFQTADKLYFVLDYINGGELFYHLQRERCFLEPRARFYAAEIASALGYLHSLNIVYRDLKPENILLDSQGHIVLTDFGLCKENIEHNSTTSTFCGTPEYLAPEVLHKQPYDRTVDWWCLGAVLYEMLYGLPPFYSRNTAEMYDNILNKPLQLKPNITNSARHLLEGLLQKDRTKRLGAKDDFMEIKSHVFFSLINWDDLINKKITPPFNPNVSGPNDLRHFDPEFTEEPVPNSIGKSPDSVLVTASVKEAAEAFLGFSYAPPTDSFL

PDK1 = target: T2, PDK1 (Homo sapiens, UniProt O15530); assay: cell-free kinase activity assay (ATPgamma[32P], T308tide substrate); conditions: for activity at 50 µM: 50 μM compound; for activity at 50 µM / activity at 200 µM: DMSO control set 100%, read-out: percent of catalytic activity of the Kinase in the presence of compound as compared to the solvent control (DMSO): PDK1; for activity at 200 µM: 200 μM compound; for AC50: concentration of the compound required to activate half maximally; for AC50 / max. activation of PDK1 (fold): n.e.: no effect; for max. activation of PDK1 (fold): maximum activation achievable, compared to the basal activity of PDK1
T2 construct: GST
T2 sequence (O15530 1-556): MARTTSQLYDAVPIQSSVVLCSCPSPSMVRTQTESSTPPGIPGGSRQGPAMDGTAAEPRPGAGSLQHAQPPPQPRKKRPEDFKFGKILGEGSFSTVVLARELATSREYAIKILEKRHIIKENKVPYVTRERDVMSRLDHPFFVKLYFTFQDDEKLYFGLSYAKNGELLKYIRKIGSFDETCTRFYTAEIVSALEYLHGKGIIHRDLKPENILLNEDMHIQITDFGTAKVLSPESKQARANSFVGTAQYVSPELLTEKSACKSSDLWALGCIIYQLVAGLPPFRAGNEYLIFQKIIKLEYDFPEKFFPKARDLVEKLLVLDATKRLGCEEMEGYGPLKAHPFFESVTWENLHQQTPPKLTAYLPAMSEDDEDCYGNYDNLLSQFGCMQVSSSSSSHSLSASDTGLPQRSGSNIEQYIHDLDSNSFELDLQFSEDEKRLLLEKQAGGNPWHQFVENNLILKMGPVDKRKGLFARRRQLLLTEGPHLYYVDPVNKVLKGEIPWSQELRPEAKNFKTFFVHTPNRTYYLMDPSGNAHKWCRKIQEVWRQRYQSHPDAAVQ
From the text: Principle of the cell-free kinase activity assay: In general, the activity of the compounds as protein kinase inhibitors or activators may be assayed in vitro (cell free assay is meant here), in vivo or in a cell line. In vitro assays include assays that determine inhibition or activation of either the phosphorylation activity or ATPase activity of the activated protein kinase. Alternate in vitro assays quantitate the ability of the inhibitor to bind to the protein kinase. Compound binding may be measured by radiolabelling the compound prior to binding, isolating the inhibitor or activator/protein kinase complex and determining the amount of radiolabel bound. Alternatively, inhibitor or activator binding may be determined by running a competition experiment where new compounds are incubated with the protein kinase bound to known radioligands. Newer methods comprise fluorescence polarisation assays and surface plasmon resonance dependent techniques. […] The activity and modulation of activity is measured using a standard ATPgamma[^32P] assay as described earlier. […] The concentration of T308tide is 1 mM and the amount of PDK1 used is 200 ng. Reactions are carried out at room temperature. Reaction is started by addition of ATP-Mg mix and stopped with phosphoric acid after 30 min. Stopped reactions were spotted on to phosphocellulose paper (P81, Whatman) and washed. After drying, the radioactivity associated to the band was quantified.

S6K = S6K (Homo sapiens, UniProt P23443); assay: cell-free kinase activity assay; conditions: DMSO control set 100%; for remaining activity at 50 µM / remaining activity at 200 µM: read-out: percent of catalytic activity of the Kinase in the presence of compound as compared to the solvent control (DMSO): S6K
S6K, sequence (P23443 whole entry): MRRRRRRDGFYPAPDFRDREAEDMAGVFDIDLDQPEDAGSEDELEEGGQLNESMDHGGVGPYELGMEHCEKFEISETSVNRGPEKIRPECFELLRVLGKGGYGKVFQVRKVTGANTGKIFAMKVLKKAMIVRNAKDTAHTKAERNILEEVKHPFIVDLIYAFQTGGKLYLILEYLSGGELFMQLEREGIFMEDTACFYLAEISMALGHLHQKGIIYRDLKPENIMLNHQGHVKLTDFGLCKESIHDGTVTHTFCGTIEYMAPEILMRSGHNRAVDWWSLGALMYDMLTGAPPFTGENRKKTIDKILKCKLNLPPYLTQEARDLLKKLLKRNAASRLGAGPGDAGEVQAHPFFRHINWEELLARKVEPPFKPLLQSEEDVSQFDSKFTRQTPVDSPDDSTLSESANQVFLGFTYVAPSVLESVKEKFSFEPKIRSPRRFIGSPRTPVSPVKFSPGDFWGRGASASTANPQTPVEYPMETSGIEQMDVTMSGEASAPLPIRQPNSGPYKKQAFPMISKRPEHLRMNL

PKCζ = target: T3, PKCζ (Homo sapiens, UniProt Q05513); assay: cell-free kinase activity assay; conditions: DMSO control set 100%; for remaining activity at 50 µM / remaining activity at 200 µM: read-out: percent of catalytic activity of the Kinase in the presence of compound as compared to the solvent control (DMSO): PKCζ; for remaining activity at 200 µM: 200 μM compound
T3 sequence (Q05513 1-592): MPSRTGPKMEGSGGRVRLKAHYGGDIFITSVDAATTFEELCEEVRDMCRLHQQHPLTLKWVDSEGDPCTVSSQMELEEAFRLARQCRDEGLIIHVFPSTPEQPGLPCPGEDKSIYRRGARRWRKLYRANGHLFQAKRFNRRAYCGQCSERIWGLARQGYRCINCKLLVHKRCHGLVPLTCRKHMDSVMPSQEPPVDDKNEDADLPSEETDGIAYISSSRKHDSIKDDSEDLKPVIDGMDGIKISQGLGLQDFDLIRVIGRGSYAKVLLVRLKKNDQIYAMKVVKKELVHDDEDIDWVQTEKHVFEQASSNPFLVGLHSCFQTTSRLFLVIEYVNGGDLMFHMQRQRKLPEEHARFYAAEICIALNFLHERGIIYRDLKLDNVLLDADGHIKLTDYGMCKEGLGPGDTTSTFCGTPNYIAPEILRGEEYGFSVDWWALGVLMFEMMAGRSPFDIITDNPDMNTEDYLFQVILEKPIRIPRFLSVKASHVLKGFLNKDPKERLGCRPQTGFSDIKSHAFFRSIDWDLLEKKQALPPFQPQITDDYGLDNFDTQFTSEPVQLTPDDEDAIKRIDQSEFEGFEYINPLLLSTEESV

PKBβ = PKBβ (Homo sapiens, UniProt P31751); assay: cell-free kinase activity assay; conditions: DMSO control set 100%; for remaining activity at 50 µM / percent of catalytic activity of the Kinase in the presence of compound as compared to the solvent control (DMSO): PKBβ: 50 μM compound; for remaining activity at 50 µM / remaining activity at 200 µM: read-out: percent of catalytic activity of the Kinase in the presence of compound as compared to the solvent control (DMSO): PKBβ; for remaining activity at 200 µM: 200 μM compound
PKBβ, sequence (P31751 whole entry, species assumed): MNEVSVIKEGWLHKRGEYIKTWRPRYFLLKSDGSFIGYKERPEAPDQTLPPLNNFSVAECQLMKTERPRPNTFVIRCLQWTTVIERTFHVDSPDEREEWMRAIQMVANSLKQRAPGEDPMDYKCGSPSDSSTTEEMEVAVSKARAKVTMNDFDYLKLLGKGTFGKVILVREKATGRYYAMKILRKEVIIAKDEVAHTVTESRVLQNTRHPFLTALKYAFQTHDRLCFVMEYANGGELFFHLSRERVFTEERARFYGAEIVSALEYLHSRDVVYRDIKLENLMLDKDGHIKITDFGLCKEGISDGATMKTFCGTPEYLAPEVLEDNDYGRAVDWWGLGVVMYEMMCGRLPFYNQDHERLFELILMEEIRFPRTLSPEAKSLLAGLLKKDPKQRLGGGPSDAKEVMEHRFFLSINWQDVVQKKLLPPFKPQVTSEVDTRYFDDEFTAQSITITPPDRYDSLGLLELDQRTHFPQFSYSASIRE

PKA = PKA (Homo sapiens, UniProt P17612); assay: cell-free kinase activity assay; conditions: DMSO control set 100%

PRK2, sequence (Q16513 whole entry, species assumed): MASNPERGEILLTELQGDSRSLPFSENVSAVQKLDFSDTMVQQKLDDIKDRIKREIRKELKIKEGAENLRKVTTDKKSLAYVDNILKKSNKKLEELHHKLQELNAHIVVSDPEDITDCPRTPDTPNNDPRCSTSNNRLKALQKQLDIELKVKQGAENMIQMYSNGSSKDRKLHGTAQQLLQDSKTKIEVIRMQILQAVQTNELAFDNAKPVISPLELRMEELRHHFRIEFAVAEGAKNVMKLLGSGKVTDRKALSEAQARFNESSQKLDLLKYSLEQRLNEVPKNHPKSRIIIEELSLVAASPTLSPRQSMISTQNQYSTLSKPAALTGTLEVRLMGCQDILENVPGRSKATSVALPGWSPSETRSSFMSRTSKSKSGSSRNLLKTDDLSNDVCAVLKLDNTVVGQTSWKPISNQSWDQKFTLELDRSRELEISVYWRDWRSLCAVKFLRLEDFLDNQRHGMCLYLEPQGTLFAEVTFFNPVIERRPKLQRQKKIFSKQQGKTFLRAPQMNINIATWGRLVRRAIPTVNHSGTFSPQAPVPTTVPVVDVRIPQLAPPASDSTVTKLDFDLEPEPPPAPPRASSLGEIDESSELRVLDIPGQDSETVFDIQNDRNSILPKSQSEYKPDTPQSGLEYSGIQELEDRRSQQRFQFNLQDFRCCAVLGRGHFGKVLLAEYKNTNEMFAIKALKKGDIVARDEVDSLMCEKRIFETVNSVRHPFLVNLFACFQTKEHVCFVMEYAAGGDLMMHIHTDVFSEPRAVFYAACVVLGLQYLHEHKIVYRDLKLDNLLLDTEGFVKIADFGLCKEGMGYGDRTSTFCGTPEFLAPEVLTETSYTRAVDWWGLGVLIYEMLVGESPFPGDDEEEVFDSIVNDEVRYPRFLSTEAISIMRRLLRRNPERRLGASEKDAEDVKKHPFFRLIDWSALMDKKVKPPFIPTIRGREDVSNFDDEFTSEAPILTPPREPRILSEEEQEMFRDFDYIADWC

| SMILES | percent of catalytic activity of the Kinase in the presence of compound as compared to the solvent control (DMSO): PRK2 (PRK2; 50 μM compound) | percent of catalytic activity of the Kinase in the presence of compound as compared to the solvent control (DMSO): PRK2 (PRK2; 200 μM compound) | percent of catalytic activity of the Kinase in the presence of compound as compared to the solvent control (DMSO): SGK (SGK; 50 μM compound) | remaining activity at 200 µM (SGK; 200 μM compound) [%] | activity at 50 µM (PDK1) [%] | activity at 200 µM (PDK1) [%] | AC50 (PDK1) [µM] | max. activation of PDK1 (fold) (PDK1) | remaining activity at 50 µM (S6K; 50 μM compound) [%] | remaining activity at 200 µM (S6K; 200 μM compound) [%] | remaining activity at 50 µM (PKCζ; 50 μM compound) [%] | remaining activity at 200 µM (PKCζ) [%] | remaining activity at 50 µM (PKBβ) [%] | remaining activity at 200 µM (PKBβ) [%] | remaining activity at 50 µM (SGK; 50 μM compound) [%] | percent of catalytic activity of the Kinase in the presence of compound as compared to the solvent control (DMSO): SGK (SGK; 200 μM compound) | percent of catalytic activity of the Kinase in the presence of compound as compared to the solvent control (DMSO): S6K (S6K; 50 μM compound) | percent of catalytic activity of the Kinase in the presence of compound as compared to the solvent control (DMSO): PKA (PKA; 50 μM compound) | percent of catalytic activity of the Kinase in the presence of compound as compared to the solvent control (DMSO): PKA (PKA; 200 μM compound) | percent of catalytic activity of the Kinase in the presence of compound as compared to the solvent control (DMSO): PKBβ (PKBβ) | further results |
| --- | --- | --- | --- | --- | --- | --- | --- | --- | --- | --- | --- | --- | --- | --- | --- | --- | --- | --- | --- | --- | --- |
| O=C(O)/C=C(/CCc1cccc(Cl)c1)c1ccccc1 [PS 87, (Z)-5-(3-Chlorophenyl)-3-phenylpent-2-enoic acid] | no effect | no effect | no effect | 60 | 150 | 150 | 11.6 | 4.1 | 90 | 65 | 45 | 3 | ~80 | ~60 |  |  |  |  |  |  |  |
| O=C(O)/C=C(\CCc1ccc(Cl)cc1)c1ccccc1F [PS 145, (E)-5-(4-Chlorophenyl)-3-(2-fluorophenyl)pent-2-enoic acid] |  |  |  | ~40 |  | ~120 |  |  |  | ~80 | 50 | 0 |  | ~70 | ~80 |  | no effect | no effect |  | no effect | remaining activity at 200 µM (PKA; 200 μM compound, read-out: percent of catalytic activity of the Kinase in the presence of compound as compared to the solvent control (DMSO): PKA): ~60% |
| O=C(O)/C=C(/CCc1ccc(Br)cc1)c1ccccc1 [PS-T10, (Z)-5-(4-Bromophenyl)-3-phenylpent-2-enoic acid] | no effect | no effect | no effect |  | 400 | 450 | 14.5 | 4.1 |  |  |  |  |  | 70 to 80 |  | no effect | no effect | no effect | no effect | no effect | percent of catalytic activity of the Kinase in the presence of compound as compared to the solvent control (DMSO): S6K (S6K; 200 μM compound): no effect |

Continued, in another order:

| percent of catalytic activity of the Kinase in the presence of compound as compared to the solvent control (DMSO): PRK2 (PRK2; 50 μM compound) | percent of catalytic activity of the Kinase in the presence of compound as compared to the solvent control (DMSO): PRK2 (PRK2; 200 μM compound) | percent of catalytic activity of the Kinase in the presence of compound as compared to the solvent control (DMSO): SGK (SGK; 50 μM compound) | remaining activity at 200 µM (SGK; 200 μM compound) [%] | activity at 50 µM (PDK1) [%] | activity at 200 µM (PDK1) [%] | AC50 (PDK1) [µM] | max. activation of PDK1 (fold) (PDK1) | remaining activity at 50 µM (S6K; 50 μM compound) [%] | remaining activity at 200 µM (S6K; 200 μM compound) [%] | remaining activity at 50 µM (PKCζ; 50 μM compound) [%] | remaining activity at 200 µM (PKCζ) [%] | remaining activity at 50 µM (PKBβ) [%] | remaining activity at 200 µM (PKBβ) [%] | remaining activity at 50 µM (SGK; 50 μM compound) [%] | percent of catalytic activity of the Kinase in the presence of compound as compared to the solvent control (DMSO): SGK (SGK; 200 μM compound) | percent of catalytic activity of the Kinase in the presence of compound as compared to the solvent control (DMSO): S6K (S6K; 50 μM compound) | percent of catalytic activity of the Kinase in the presence of compound as compared to the solvent control (DMSO): PKA (PKA; 50 μM compound) | percent of catalytic activity of the Kinase in the presence of compound as compared to the solvent control (DMSO): PKA (PKA; 200 μM compound) | percent of catalytic activity of the Kinase in the presence of compound as compared to the solvent control (DMSO): PKBβ (PKBβ) | SMILES | further results |
| --- | --- | --- | --- | --- | --- | --- | --- | --- | --- | --- | --- | --- | --- | --- | --- | --- | --- | --- | --- | --- | --- |
| no effect |  |  | 50 |  | 180 | 30 | 1.8 | 90 | 55 | 45 | 2 | 80 to 90 | 60 to 70 | 112 |  |  |  |  |  | O=C(O)/C=C1\c2ccccc2CC1Cc1ccc(Cl)cc1 (stereo not drawn) [PS 102] | remaining activity at 200 µM (PRK2; 200 μM compound, read-out: percent of catalytic activity of the Kinase in the presence of compound as compared to the solvent control (DMSO): PRK2): 110% |
| no effect | no effect | no effect |  | 400 | 500 |  |  |  | 75 |  | 30 | 85 | 80 |  | no effect | no effect | no effect | no effect |  | O=C(O)CC(Cc1nc2cc(Cl)ccc2[nH]1)c1ccc(Cl)cc1 (stereo not drawn) [PS 114, 4-(5-Chloro-2-benzimidazolyl)-3-(4-chlorophenyl)butanoic acid] | percent of catalytic activity of the Kinase in the presence of compound as compared to the solvent control (DMSO): PKCζ (PKCζ; 50 μM compound): no effect |
